How the values were obtained:
HMG-CoA reductase = HMG-CoA reductase inhibition assay (in vitro); type: biochemical; settings: IC50 compared with compactin determined simultaneously, compactin assigned 100; tested as sodium salt of dihydroxy acid form; solubilized rat liver microsomal enzyme
Experimental: The intrinsic HMG-CoA reductase inhibition activityof the claimed compounds is measured in the in vitro protocol published in J. Med. Chem., 28, p. 347-358 (1985) and described below:
Male Holtzman Sprague-Dawley rats (225-250 g) were kept on reversed lighting and fed Purina rat chow containing 3% cholestyramine for 7 days preceding their sacrifice by CO2 asphyxiation. Livers were removed 6 hours into the dark cycle and used immediately to prepare microsomes. […]
Test compounds or compactin (after first being converted to the sodium salt of their dihydroxy acid form in situ by addition of 1N NaOH (1 equivalent) were added to the assay system in 10-μL volumes at multiconcentration levels. After a 40-minutes incubation at 37° C. with shaking and exposure to air, the reaction was stopped by the addition of 0.4 mL of 8N HCl. After an additional 30-minute incubation at 37° C. to ensure the complete lactonization of mevalonic acid to mevalonolactone, 0.2 ml of the mixture was added to an 0.5×5.0 cm column containing 100-200 mesh BioRex 5, chloride form (Bio-Rad), wetted with distilled water, as described by Alberts et al., [J. Proc. Natl. Acad. Sci. U.S.A., 1980, 77, 3957]. […] Five milliliters of Aquasol-2 (New England Nuclear) was added to each vial, and radioactivity was measured in a Packard Tri Carb Prias scintillation counter. […]

[1] = Stability of free hydroxy acid on standing; type: physicochemical
Experimental: The sodium salt of the compound II from Example 11 is redissolved in 2 ml of ethanol-water (1:1) and added to 10 ml of 1N hydrochloric acid from which the hydroxy acid is extracted with ethyl acetate. The latter solvent is washed once with water, dried, and removed in vacuo with a bath temperature not exceeding 30° C.

| Relative Potency (HMG-CoA reductase) | Compound | stability of hydroxy acid (reversion to lactone) [1] |
| --- | --- | --- |
| 59 | 6(R)-[2-[8(S)-(2,2-Dimethyl-3-methoxycarbonylpropionyloxy)-2(S),6(R)-dimethyl-1,2,6,7,8,8a-(R)-hexahydronaphthyl-1(S)]ethyl]-4(R)-hydroxy-3,4,5,6-tetrahydro-2H-pyran-2-one [Example 2] | – |
| 87 | 6(R)-[2-[8(S)-(2,2-dimethyl-3-methoxy-3-oxopropionyloxy)-2(S),6(R)-dimethyl-1,2,6,7,8,8a(R)-hexahydronaphthyl-1(S)]ethyl]-4(R)-hydroxy-3,4,5,6-tetrahydro-2H-pyran-2-one [Example 1] | – |
| – | COC(=O)C(C)(C)C(=O)O[C@H]1C[C@@H](C)C=C2C=C[C@H](C)[C@H](CC[C@@H](O)C[C@@H](O)CC(=O)O)[C@H]21 [Example 13] | slowly reverts to the lactone on standing |

— patent US4771071A, “Antihypercholesterolemic compounds” (Merck & Co., Inc., priority 1986, dated 1988)
